Some test systems named below: OVCAR-5 ovarian; SK-MEL-5 melanoma; SF-539 CNS; HCC-2998 colon; SF-268 CNS; 786-0 renal; EKVX NSCLC; IGROV1 ovarian; SK-MEL-28 melanoma.
Assay in all cases: inhibition of tumour cell growth, NCI panel, 48 h

Values joined by “and” are separate entries in the source; they are usually repeats but may differ in a detail not shown here. Equal entries are not always repeated.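 Compound exposure: 48 hours, 5 concentrations, 96-well plates. Here, GI50 denotes the concentration required for 50% inhibition of growth. TGI: concentration producing complete growth inhibition.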 A value given as a limit tells only on which side of the number the result lay.

`C/C=C/C(=O)[O-].C/C=C/C(=O)[O-].N.N.N.N.[Co+3].[O-][Cl+3]([O-])([O-])[O-]`: the GI50 in the test with OVCAR-5 ovarian, with SK-MEL-5 melanoma, with SF-539 CNS, in the test on HCC-2998 colon, with SF-268 CNS and with 786-0 renal was over 100 µM in each case. Moreover, the GI50 with EKVX NSCLC, in the test with IGROV1 ovarian and with SK-MEL-28 melanoma was over 100 µM each time. Also, the TGI with OVCAR-5 ovarian, in the test with SK-MEL-5 melanoma, with SF-539 CNS, in the test on HCC-2998 colon, in the test on SF-268 CNS and with 786-0 renal was over 100 µM throughout. The TGI with EKVX NSCLC, in the test on IGROV1 ovarian and with SK-MEL-28 melanoma was over 100 µM in each case.
As for `C=C1C(=O)O[C@H]2[C@H]1CC/C(COC(=O)/C=C\C(=O)NCc1ccc(Cn3c(=O)sn(CCI)c3=O)cc1)=C\CC[C@@]1(C)O[C@@H]21`, the GI50 in the test on OVCAR-5 ovarian was 3.56 µM; in the test on SK-MEL-5 melanoma, 12.8 µM; in the test with SF-539 CNS it was 3.36 µM; in the test on HCC-2998 colon, 13.9 µM; with SF-268 CNS, 10.1 µM; with 786-0 renal it was 2.6 µM. Also, the GI50 in the test on EKVX NSCLC is 4.7 µM; in the test with IGROV1 ovarian it was 3.17 µM; in the test with SK-MEL-28 melanoma, 2.23 µM. Besides, the TGI with OVCAR-5 ovarian was 13.3 µM; in the test on SK-MEL-5 melanoma, 25.7 µM; in the test with SF-539 CNS it was 9.51 µM; in the test with HCC-2998 colon, 27.8 µM; in the test on SF-268 CNS it was 23.6 µM; with 786-0 renal, 7.23 µM. The figures for the TGI in the test with EKVX NSCLC, in the test with IGROV1 ovarian and with SK-MEL-28 melanoma were 20.2 µM, 11.9 µM and 5.04 µM, respectively.
As for `CC1=CP(=O)(c2ccccc2)C=C(C)C1=C(Cl)Cl` (stereo unspecified), the TGI in the test with SK-MEL-5 melanoma stood at 31.2 µM; with SF-539 CNS, 88.6 µM; in the test on HCC-2998 colon it was 29.8 µM; in the test with SF-268 CNS, 42.4 µM; with 786-0 renal it was 16.5 µM; in the test with IGROV1 ovarian, 34.1 µM. Further, the TGI in the test with SK-MEL-28 melanoma is 23.4 µM.
In the case of `COc1ccc2c(c1)/C(=C\c1c(-c3cc(OC)ccc3OC)nc3sccn13)C(=O)N2`, the GI50 in the test with OVCAR-5 ovarian was 6.65 µM and 1.73 µM; in the test on SF-268 CNS, 2.08 µM; in the test with 786-0 renal, 0.561 µM; in the test with IGROV1 ovarian, 0.697 µM; in the test with SK-MEL-28 melanoma it was 1.49 µM. The TGI was 3.1 µM with OVCAR-5 ovarian; 4.32 µM in the test with SF-268 CNS; 1.78 µM in the test on 786-0 renal; 2.73 µM in the test with IGROV1 ovarian; 2.81 µM in the test with SK-MEL-28 melanoma.
As for `CC(C)COC1Sc2ccccc2S1`, the TGI with HCC-2998 colon turned out to be 45.3 µM; in the test on SF-268 CNS, 66.3 µM; with 786-0 renal it was 50 µM; in the test with EKVX NSCLC, 38.1 µM; with IGROV1 ovarian, 32.3 µM; with SK-MEL-28 melanoma, 33.7 µM.
Take `COCCc1n(Cc2ccc3ccccc3c2)c2ccccc2[n+]1Cc1ccc2ccccc2c1`: the GI50 in the test with OVCAR-5 ovarian was 1.11 µM; in the test with SK-MEL-5 melanoma, 0.371 µM; in the test with 786-0 renal, 1.28 µM; in the test with SK-MEL-28 melanoma it was 0.567 µM. Also, the TGI with OVCAR-5 ovarian worked out at 2.47 µM; with SK-MEL-5 melanoma, 1.36 µM; in the test on 786-0 renal, 2.76 µM; with SK-MEL-28 melanoma, 1.97 µM.
Turning to `COc1ccc(/C=C/C(=O)c2c(-c3ccccc3)nn(C)c(=O)c2N2CCOCC2)cc1`, the TGI with SK-MEL-5 melanoma, in the test with SF-539 CNS, in the test with SF-268 CNS, in the test with 786-0 renal, with EKVX NSCLC and in the test with IGROV1 ovarian was over 100 µM each time. For the same compound, the TGI with SK-MEL-28 melanoma was over 100 µM.
For the compound `C#CC1(O)C(COP(=O)(O)OCC2OC(n3cc(F)c(=O)[nH]c3=O)CC2O)OC(n2ccc(N)nc2=O)C1O` (stereo unspecified), the GI50 was 0.309 µM in the test on OVCAR-5 ovarian; under 0.01 µM in the test with SK-MEL-5 melanoma; under 0.01 µM with SF-539 CNS; under 0.01 µM with HCC-2998 colon; under 0.01 µM in the test on SF-268 CNS; under 0.01 µM in the test on 786-0 renal. For the same compound, the GI50 with EKVX NSCLC was 0.529 µM; in the test with IGROV1 ovarian it was 0.0398 µM; in the test on SK-MEL-28 melanoma, under 0.01 µM. Further, the TGI with OVCAR-5 ovarian was over 59.1 µM; in the test with SK-MEL-5 melanoma, 0.0412 µM; in the test with SF-539 CNS it was 0.527 µM; in the test with SF-268 CNS, 5.81 µM; in the test with 786-0 renal, over 100 µM; with EKVX NSCLC, over 29.8 µM. The TGI with IGROV1 ovarian is over 100 µM; with SK-MEL-28 melanoma, 0.378 µM.
In the case of `Nc1nc2c(-c3ccc([N+](=O)[O-])cc3)nnn2c2ccccc12`, the TGI in the test with OVCAR-5 ovarian, in the test on SF-539 CNS, in the test on HCC-2998 colon, in the test with SF-268 CNS, in the test with 786-0 renal and in the test with EKVX NSCLC was over 100 µM each time. The TGI in the test with IGROV1 ovarian and in the test with SK-MEL-28 melanoma was over 100 µM in each case.
Consider `c1ccc2c(c1)Cc1c(Cc3csc4ccccc34)ccc3cccc-2c13`, for which the TGI with OVCAR-5 ovarian, in the test with SK-MEL-5 melanoma, in the test on SF-539 CNS, with HCC-2998 colon, in the test with SF-268 CNS and in the test on 786-0 renal was over 100 µM in each case. Moreover, the TGI with EKVX NSCLC, in the test on IGROV1 ovarian and in the test with SK-MEL-28 melanoma was over 100 µM throughout.
As to `OC1CCCC2CCC[N-]C12.OC1CCCC2CCC[N-]C12.[O]=[V][OH]` (stereo unspecified), the GI50 in the test with OVCAR-5 ovarian was 9.99 µM; with SK-MEL-5 melanoma, 5.57 µM; with SF-539 CNS it was 15.8 µM; with HCC-2998 colon, 12.7 µM; in the test on SF-268 CNS, 4.04 µM; with 786-0 renal, 7.08 µM. The GI50 in the test on EKVX NSCLC was 3.62 µM; in the test on IGROV1 ovarian, 2.37 µM; in the test with SK-MEL-28 melanoma, 21.2 µM. Also, the TGI with OVCAR-5 ovarian was over 100 µM; in the test on SK-MEL-5 melanoma it was 46.2 µM; in the test on SF-539 CNS, over 100 µM; in the test with HCC-2998 colon it was over 100 µM; in the test on SF-268 CNS, over 100 µM; in the test on 786-0 renal it was 24.8 µM. Moreover, the TGI in the test with EKVX NSCLC is 22.8 µM; in the test on IGROV1 ovarian, 12.2 µM; with SK-MEL-28 melanoma it was over 100 µM.

For the origin of these results see PubChem BioAssay (NCI).
